According to patent US9023987B2, “Cell-permeable peptide” (Seoul National University R&DB Foundation, priority 2010, dated 2015):
Ends that are not written are not given here.

Tests used:
[1] = system: human mesenchymal stem cells (hMSC); assay: Cell permeability by fluorescence imaging (confocal scanning microscope); format: cell-based; details: FITC/fluorescence-labeled, FIG. 3A, FIG. 7
Description: The domains synthesized in Example 1 and Comparative Examples 1 and 2 were labeled with a fluorescent material in order to measure cell permeability. 10 equivalents of fluorescein isothiocyanate (FITC) was bound to N-terminals of the synthesized domains by using triethylamine (1 ml per 1 g of resin). The synthesis of the peptide was confirmed by measuring the molecular weight thereof through MALDI-TOF.
In order to measure the cell permeability of the cell permeable peptide-bone differentiation inducing sequence conjugate, after sterile slide glass was input in a 6-well plate and 2×10^4 human mesenchymal stem cells (hMSC) were plated in each well, the cells were cultured in a general medium for 20 hours (overnight incubation). Then the cells was cultured in an hMSC basal medium (MSCBM, LONZA, USA) containing 0.5% fetal bovine serum (FBS, GIBCO, USA) for 20 hours (overnight starvation). […] fluorescence labeled cell permeable peptide-bone differentiation inducing sequence conjugate and […] fluorescence labeled bone differentiation inducing sequence that were obtained by binding FITC (SIGMA, USA) N-terminals of the cell permeable peptide-bone differentiation inducing sequence conjugate synthesized by the method in Example 1 and the domain in Comparative Example 2 to synthesize the fluorescence label conjugate and fluorescence label domain, followed by isolation and purification, were injected into each well and washed with phosphate buffer solution (PBS) two times after 20 minutes and 80 minutes of injection. The resultants was observed using a confocal scanning microscope (IX 70, Olympus Co., Tokyo, Japan).

[2] = system: human mesenchymal stem cells (hMSC); assay: Cytotoxicity by MTT assay; format: cell-based; parameters: dose or concentration left out as unconfirmed; details: 24, 48, and 72 hours, FIG. 5
Description: In order to confirm whether or not cell proliferation is affected by potential toxicity when the cell permeable peptide-bone differentiation inducing sequence conjugate and control domains are cultured with hMSC, a 3-[4,5-dimethylthiazo-2-yl]-2,5-diphenyl tetrazolium bromide thiazolyl blue (MTT) assay method was used.
The MTT assay method is a method for measuring cytotoxicity by measuring absorbance of formazan produced as mitochondrial dehydrogenases in alive and metabolically active cells reduces MTT to indicate the absorbance as a percentage based on the control group. In this case, the measured absorbance reflects a concentration of the alive and metabolically active cells. 2,3,5-triphenyl tetrazolium chloride (TTC) is reduced to formazan in live cells. The formazan is insoluble purple color, and a respiration rate may be measured by a degree of color. The absorbance of formazan is maximal at 540 nm, and the absorbance measured at this wavelength reflects the concentration of the alive and metabolically active cells. Since a linear relationship between the absorbance and the concentration of the cells is not established when a concentration of cells in well to be measured is excessively high or low, a process of determining an optimal concentration of the cells was performed. […]

[3] = system: human mesenchymal stem cells (hMSC); assay: Cytotoxicity / cell proliferation by quantitative BrdU assay; format: cell-based; parameters: dose or concentration left out as unconfirmed; details: 24, 48, and 72 hours, FIG. 6
Description: In order to confirm whether or not cell proliferation is affected by potential toxicity when the cell permeable peptide-bone differentiation inducing sequence conjugate and control domains are cultured with hMSC, a degree of cell proliferation was analysis by ELISA using BrdU. Since BrdU was introduced in chromosome instead of deoxy thymidine triphosphate (dTTP) at the time of DNA replication during a proliferation process of hMSC, a degree of introduction of BrdU may reflect a degree of proliferation of hMSC.
First, After 1×10^3 human Mesenchymal Stem cells (hMSC) were plated into each well of 96-well plate, the degree of introduction of BrdU, that is, the degree of proliferation of hMSC was measured using a cell proliferation ELISA kit (BrdU (colorimetry); Boehringermanheim, Germany). Simply describing this method, the cells were treated with the cell permeable peptide-bone differentiation inducing sequence conjugate synthesized by the method in Example 1 and the domains of Example 2 at a concentration of […] and cultured in medium for forming hard tissue for 24, 48, and 72 hours. […] of BrdU (5-bromo-2′-deoxyuridine) was added to each of the groups before 24 hours of each culture time and further cultured for 24 hours. […] The reaction was terminated by 1N H2SO4, and then absorbance was measured using the ELISA reader (Bio-Tek, USA) at 450 nm.

[4] = molecular target: T1, human-derived Smurf1 protein (Homo sapiens, UniProt Q9HCE7); assay: Affinity to Smurf1 by surface plasmon resonance (BIACORE T100); format: binding; details: 10 mM analyte over Smurf1 coupled to CM5 chip; FIG. 2A
T1 construct: purchased Origene Technologies (Rockville, Md., USA)
T1 sequence (Q9HCE7 whole entry): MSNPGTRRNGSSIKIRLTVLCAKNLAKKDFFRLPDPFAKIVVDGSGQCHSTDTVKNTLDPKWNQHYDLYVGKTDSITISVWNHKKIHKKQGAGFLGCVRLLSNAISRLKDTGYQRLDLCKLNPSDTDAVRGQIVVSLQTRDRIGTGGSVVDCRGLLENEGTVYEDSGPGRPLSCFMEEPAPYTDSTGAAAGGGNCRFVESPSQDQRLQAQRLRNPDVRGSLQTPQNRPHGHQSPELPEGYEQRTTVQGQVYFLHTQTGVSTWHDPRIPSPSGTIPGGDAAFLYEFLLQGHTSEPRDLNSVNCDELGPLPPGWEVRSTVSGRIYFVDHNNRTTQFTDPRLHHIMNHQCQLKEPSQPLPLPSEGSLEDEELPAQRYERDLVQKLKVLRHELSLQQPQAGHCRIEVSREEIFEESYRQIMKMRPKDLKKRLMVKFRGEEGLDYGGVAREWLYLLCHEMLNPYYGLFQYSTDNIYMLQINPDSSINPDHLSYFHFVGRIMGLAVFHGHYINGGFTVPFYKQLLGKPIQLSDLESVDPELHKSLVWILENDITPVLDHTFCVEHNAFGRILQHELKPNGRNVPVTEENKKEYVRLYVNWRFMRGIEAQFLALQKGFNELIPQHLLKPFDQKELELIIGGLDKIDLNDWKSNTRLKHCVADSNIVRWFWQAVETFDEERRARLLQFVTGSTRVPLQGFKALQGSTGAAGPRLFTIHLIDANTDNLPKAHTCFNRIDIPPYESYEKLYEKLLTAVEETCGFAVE
Description: In order to confirm the affinity between cell permeable peptide-bone differentiation inducing sequence conjugate and Smurf1 by a chemical method, a human-derived Smurf1 protein acting as a ligand in the present experiment was purchased from Origene Technologies (Rockville, Md., USA). The protein ([…]) was coupled to a gold coated surface of a CM5 chip (BIACORE AB, Sweden) on which amino groups are bounded using an EDC/NHS kit (BIACORE AB, Sweden). (Instead of this experimental method, ‘Immobilization’ integrated into the BIACORE® T100 (BIACORE AB, Sweden) software used by the present inventors may be used). In this case, in order to find a suitable pH condition at which the protein may bind to the amino group in the CM5 chip, a method called ‘pH scouting’ was performed, thereby finding a pH condition. As a method of ‘pH scouting’, a method integrated in the BIACORE® T100 (BIACORE AB, Sweden) software used by the present inventors may be used. […]

YGRKKRRQRRR [TAT, reference compound]
intracellular fluorescence after 20 minutes (confocal) [1]: fluorescent materials uniformly present in cytoplasm were observed | intracellular fluorescence after 80 minutes (confocal) [1]: fluorescent materials densely present up to in nucleus were confirmed

GAPPPADSAP-NH2 [Comparative Example 2, GAPPPADSAP, reference compound]
cytotoxicity (MTT, cell proliferation ability compared with PBS) [2]: did not exhibit cytotoxicity | effect on cell proliferation (BrdU, DNA synthesis ability compared with PBS) [3]: did not affect the cell proliferation

SSRKKNPNCRRH (H4S) [Comparative Example 1]
affinity to Smurf1 [4]: 100 RU | intracellular fluorescence after 20 minutes (confocal) [1]: fluorescent materials uniformly present in cytoplasm were observed | intracellular fluorescence after 80 minutes (confocal) [1]: fluorescent materials densely present up to in nucleus were confirmed
